Measurements published in patent US20240336601A1 (Chulalongkorn University, priority 2020, published 2024).

Columns and labels:
[1] = biological target: interaction between PD-1 and PD-L1 (Homo sapiens, UniProt Q9NZQ7); experiment: PD-1/PD-L1 protein-protein interaction assay (ALPHA); assay type: binding; settings: 2 nM His-tagged human PD-L1, 0.6 nM PD-1-Fc, AlphaScreen
PD-1/PD-L1 interaction = biological target: T1, PD-1/PD-L1 interaction (Homo sapiens, UniProt Q9NZQ7); experiment: PD-1/PD-L1 blockage cell-based bioassay (Jurkat NFAT luciferase / CHO-PDL1 co-culture); settings: Jurkat NFAT cells co-cultured with CHO-PDL1 cells, 6 h, luminescence
T1 construct: expressed in transfected cells
T1 sequence (Q9NZQ7 19-290): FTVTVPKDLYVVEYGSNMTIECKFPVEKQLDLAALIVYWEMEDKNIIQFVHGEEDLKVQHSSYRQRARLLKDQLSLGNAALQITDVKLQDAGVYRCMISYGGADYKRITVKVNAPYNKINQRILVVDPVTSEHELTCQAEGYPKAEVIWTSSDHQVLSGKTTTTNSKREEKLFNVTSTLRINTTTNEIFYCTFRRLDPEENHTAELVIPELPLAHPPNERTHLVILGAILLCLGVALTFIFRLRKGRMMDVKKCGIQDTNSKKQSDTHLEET

Chain of interaction between PD-1 and PD-L1 (Q9NZQ7 19-238 limits assumed): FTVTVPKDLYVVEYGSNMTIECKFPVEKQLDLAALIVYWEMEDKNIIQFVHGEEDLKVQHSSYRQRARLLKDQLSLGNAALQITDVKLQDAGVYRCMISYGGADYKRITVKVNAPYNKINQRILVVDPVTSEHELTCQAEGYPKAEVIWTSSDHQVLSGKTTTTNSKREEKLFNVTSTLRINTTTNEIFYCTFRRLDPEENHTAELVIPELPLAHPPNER

Compound | IC50 [1] | IC50 (PD-1/PD-L1 interaction)
COc1cc(-n2ncc3c(-c4cccc(-c5ccc(CN[C@H]6C[C@@H](O)C6)c(OC)n5)c4Cl)cccc32)ncc1CN[C@H](CO)C(=O)O [Example 120, ((6-(4-(2-chloro-3-(5-(((cis-3-hydroxycyclobutyl)amino)methyl)-6-methoxypyridin-2-yl)phenyl)-1H-indazol-1-yl)-4-methoxypyridin-3-yl)methyl)-D-serine] | < 0.001 µM | 0.201 to 2 µM
COc1cc(-n2ncc3c(-c4cccc(-c5ccc(CN[C@H]6C[C@@H](O)C6)c(OC)n5)c4Cl)cccc32)cc(OC)c1CN[C@@H](CO)C(N)=O [Example 121, (S)-2-((4-(4-(2-chloro-3-(5-(((cis-3-hydroxycyclobutyl)amino)methyl)-6-methoxypyridin-2-yl)phenyl)-1H-indazol-1-yl)-2,6-dimethoxybenzyl)amino)-3-hydroxypropanamide] | < 0.001 µM | 0.201 to 2 µM
COc1cc(-n2ncc3c(-c4cccc(-c5ccc(CN[C@H]6C[C@@H](O)C6)c(OC)n5)c4Cl)cccc32)ncc1CNC[C@@H](C)O [Example 122, cis-3-(((6-(2-chloro-3-(1-(5-((((R)-2-hydroxypropyl)amino)methyl)-4-methoxypyridin-2-yl)-1H-indazol-4-yl)phenyl)-2-methoxypyridin-3-yl)methyl)amino)cyclobutanol] | 0.001 to 0.01 µM | 0.201 to 2 µM
COc1cc(-n2ncc3c(-c4cccc(-c5ccc(CNC[C@@H]6CCC(=O)N6)c(OC)n5)c4Cl)cccc32)cc(OC)c1CN[C@H](CO)C(=O)O [Example 123, (4-(4-(2-chloro-3-(6-methoxy-5-(((((S)-5-oxopyrrolidin-2-yl)methyl)amino)methyl)pyridin-2-yl)phenyl)-1H-indazol-1-yl)-2,6-dimethoxybenzyl)-D-serine] | < 0.001 µM | < 0.2 µM
COc1cc(-n2ncc3c(-c4cccc(-c5ccc(CN[C@H]6C[C@@H](O)C6)c(OC)n5)c4Cl)cccc32)ncc1CN1CC(C)(O)C1 [Example 124, 1-((6-(4-(2-chloro-(5-(((cis-3-hydroxycyclobutyl)amino)methyl)-6-methoxypyridin-2-yl)phenyl)-1H-indazol-1-yl)-4-methoxypyridin-3-yl)methyl)-3-methylazetidin-3-ol] | < 0.001 µM | 0.201 to 2 µM
COc1cc(-n2ncc3c(-c4cccc(-c5ccc(CN[C@H]6C[C@@H](O)C6)c(OC)n5)c4Cl)cccc32)cc(OC)c1CNCCO [Example 125, cis-3-(((6-(2-chloro-3-(1-(4-(((2-hydroxyethyl)amino)methyl)-3,5-dimethoxyphenyl)-1H-indazol-4-yl)phenyl)-2-methoxypyridin-3-yl)methyl)amino)cyclobutanol] | < 0.001 µM | < 0.2 µM
COc1cc(-n2ncc3c(-c4cccc(-c5ccc(CN[C@H]6C[C@@H](O)C6)c(OC)n5)c4Cl)cccc32)cc(OC)c1CN[C@H](CO)C(=O)O [Example 126, (4-(4-(2-chloro-3-(5-(((cis-3-hydroxycyclobutyl)amino)methyl)-6-methoxypyridin-2-yl)phenyl)-1H-indazol-1-yl)-2,6-dimethoxybenzyl)-D-serine] | < 0.001 µM | < 0.2 µM
COc1cc(-n2ncc3c(-c4cccc(-c5ccc(CNC[C@@H](C)O)c(OC)n5)c4Cl)cccc32)cc(OC)c1CNC[C@@H](C)O [Example 127, (R)-1-(((6-(2-chloro-3-(1-(4-((((R)-2-hydroxypropyl)amino)methyl)-3,5-dimethoxyphenyl)-1H-indazol-4-yl)phenyl)-2-methoxypyridin-3-yl)methyl)amino)propan-2-ol] | < 0.001 µM | < 0.2 µM
COc1cc(-n2ncc3c(-c4cccc(-c5ccc(CN6CC7(CNC(=O)C7)C6)c(OC)n5)c4Cl)cccc32)cc(OC)c1CNCCO [Example 128, 2-((6-(2-chloro-3-(1-(4-(((2-hydroxyethyl)amino)methyl)-3,5-dimethoxyphenyl)-1H-indazol-4-yl)phenyl)-2-methoxypyridin-3-yl)methyl)-2,6-diazaspiro[3.4]octan-7-one] | < 0.001 µM | < 0.2 µM
COc1cc(-n2ncc3c(-c4cccc(-c5ccc(CNCCO)c(OC)n5)c4Cl)cccc32)cc(OC)c1CNCCO [Example 129, 2-(((6-(2-chloro-3-(1-(4-(((2-hydroxyethyl)amino)methyl)-3,5-dimethoxyphenyl)-1H-indazol-4-yl)phenyl)-2-methoxypyridin-3-yl)methyl)amino)ethanol] | < 0.001 µM | < 0.2 µM
COc1cc(-n2ncc3c(-c4cccc(-c5ccc(CN6CC[C@@H](C(=O)O)C6)c(OC)n5)c4Cl)cccc32)cc(OC)c1CN1CC2(CNC(=O)C2)C1 [Example 130, (R)-1-((6-(2-chloro-3-(1-(3,5-dimethoxy-4-((7-oxo-2,6-diazaspiro[3.4]octan-2-yl)methyl)phenyl)-1H-indazol-4-yl)phenyl)-2-methoxypyridin-3-yl)methyl)pyrrolidine-3-carboxylic acid] | < 0.001 µM | < 0.2 µM
COc1cc(-n2ncc3c(-c4cccc(-c5ccc(CN[C@H]6C[C@@H](O)C6)c(OC)n5)c4Cl)cccc32)cc(OC)c1CNCC1(C(N)=O)CC1 [Example 131, 1-(((4-(4-(2-chloro-3-(5-(((cis-3-hydroxycyclobutyl)amino)methyl)-6-methoxypyridin-2-yl)phenyl)-1H-indazol-1-yl)-2,6-dimethoxybenzyl)amino)methyl)cyclopropane-1-carboxamide] | 0.001 to 0.01 µM | 0.201 to 2 µM
COc1cc(-n2ncc3c(-c4cccc(-c5ccc(CN6CC7(CNC(=O)C7)C6)c(OC)n5)c4Cl)cccc32)ncc1CNCCO [Example 132, 2-((6-(2-chloro-3-(1-(5-(((2-hydroxyethyl)amino)methyl)-4-methoxypyridin-2-yl)-1H-indazol-4-yl)phenyl)-2-methoxypyridin-3-yl)methyl)-2,6-diazaspiro[3.4]octan-7-one] | < 0.001 µM | < 0.2 µM
COc1cc(-n2ncc3c(-c4cccc(-c5ccc(CN6CC7(CNC(=O)C7)C6)c(OC)n5)c4Cl)cccc32)cc(OC)c1CN1CC[C@@H](O)C1 [Example 133, (R)-2-((6-(2-chloro-3-(1-(4-((3-hydroxypyrrolidin-1-yl)methyl)-3,5-dimethoxyphenyl)-1H-indazol-4-yl)phenyl)-2-methoxypyridin-3-yl)methyl)-2,6-diazaspiro[3.4]octan-7-one] | 0.001 to 0.01 µM | < 0.2 µM

Further lines, results first:

IC50 [1] | IC50 (PD-1/PD-L1 interaction) | Compound
< 0.001 µM | < 0.2 µM | COC(=O)[C@@H](CO)NCc1c(OC)cc(-n2ncc3c(-c4cccc(-c5ccc(CNC[C@@H]6CCC(=O)N6)c(OC)n5)c4Cl)cccc32)cc1OC [Example 134, methyl (4-(4-(2-chloro-3-(6-methoxy-5-(((((S)-5-oxopyrrolidin-2-yl)methyl)amino)methyl)pyridin-2-yl)phenyl)-1H-indazol-1-yl)-2,6-dimethoxybenzyl)-D-serinate]
< 0.001 µM | < 0.2 µM | COc1cc(-n2ncc3c(-c4cccc(-c5ccc(CN6CC7(CNC(=O)C7)C6)c(OC)n5)c4F)cccc32)cc(OC)c1CNC[C@@H]1CCC(=O)N1 [Example 135, (S)-2-((6-(2-fluoro-3-(1-(3,5-dimethoxy-4-((((5-oxopyrrolidin-2-yl)methyl)amino)methyl)phenyl)-1H-indazol-4-yl)phenyl)-2-methoxypyridin-3-yl)methyl)-2,6-diazaspiro[3.4]octan-7-one]
< 0.001 µM | 0.201 to 2 µM | COc1cc(-n2ncc3c(-c4cccc(-c5ccc(CN6CC(C(C)(C)O)C6)c(OC)n5)c4C)cccc32)cc(OC)c1CN1CC(C(C)(C)O)C1 [Example 136, 2-(1-((6-(3-(1-(4-((3-(2-hydroxypropan-2-yl)azetidin-1-yl)methyl)-3,5-dimethoxyphenyl)-1H-indazol-4-yl)-2-methylphenyl)-2-methoxypyridin-3-yl)methyl)azetidin-3-yl)propan-2-ol]
< 0.001 µM | 0.201 to 2 µM | COc1cc(-n2ncc3c(-c4cccc(-c5ccc(CN6CC7(CNC(=O)C7)C6)c(OC)n5)c4Cl)cccc32)cc(OC)c1CN1CC(C(C)(C)O)C1 [Example 137, 2-((6-(2-chloro-3-(1-(4-((3-(2-hydroxypropan-2-yl)azetidin-1-yl)methyl)-3,5-dimethoxyphenyl)-1H-indazol-4-yl)phenyl)-2-methoxypyridin-3-yl)methyl)-2,6-diazaspiro[3.4]octan-7-one]
0.001 to 0.01 µM | 0.201 to 2 µM | COc1cc(-n2ncc3c(-c4cccc(-c5ccc(CN6CC(C(C)(C)O)C6)c(OC)n5)c4Cl)cccc32)cc(OC)c1CN1CC2(CNC(=O)C2)C1 [Example 138, 2-(4-(4-(2-chloro-3-(5-((3-(2-hydroxypropan-2-yl)azetidin-1-yl)methyl)-6-methoxypyridin-2-yl)phenyl)-1H-indazol-1-yl)-2,6-dimethoxybenzyl)-2,6-diazaspiro[3.4]octan-7-one]
< 0.001 µM | < 0.2 µM | COc1cc(-n2ncc3c(-c4cccc(-c5ccc(CN6CC7(CNC(=O)C7)C6)c(OC)n5)c4Cl)cccc32)cc(OC)c1CN[C@@](C)(CO)C(=O)O [Example 139, (S)-2-((4-(4-(2-chloro-3-(6-methoxy-5-((7-oxo-2,6-diazaspiro[3.4]octan-2-yl)methyl)pyridin-2-yl)phenyl)-1H-indazol-1-yl)-2,6-dimethoxybenzyl)amino)-3-hydroxy-2-methylpropanoic acid]
0.001 to 0.01 µM | 0.201 to 2 µM | COc1cc(-n2ncc3c(-c4cccc(-c5ccc(CN6CC(C(C)(C)O)C6)c(OC)n5)c4Cl)cccc32)cc(OC)c1CN1CC2(CCC(=O)N2)C1 [Example 140, 2-(4-(4-(2-chloro-3-(5-((3-(2-hydroxypropan-2-yl)azetidin-1-yl)methyl)-6-methoxypyridin-2-yl)phenyl)-1H-indazol-1-yl)-2,6-dimethoxybenzyl)-2,5-diazaspiro[3.4]octan-6-one]
< 0.001 µM | < 0.2 µM | COc1cc(-n2ncc3c(-c4cccc(-c5ccc(CN6CC7(CNC(=O)C7)C6)c(OC)n5)c4Cl)cccc32)cc(OC)c1CN[C@H](C(=O)O)[C@@H](C)O [Example 141, (4-(4-(2-chloro-3-(6-methoxy-5-((7-oxo-2,6-diazaspiro[3.4]octan-2-yl)methyl)pyridin-2-yl)phenyl)-1H-indazol-1-yl)-2,6-dimethoxybenzyl)-L-threonine]
